Key:
786-O cells [1] = assay: 786-O experimental tumors in mice, anti-VEGFXXX/NF, bevacizumab or anti-KLH treatment (FIG. 12D-J); format: in vivo; conditions: 786-O tumors
Experimental: (E) The weight of 786-O tumors at the end of the experiment. (F) Quantification of Ki67 positive cells in 786-0 tumors. […] (G) Number of mature (CD31+, a-SMA+) vessels in the different tumor sections.
Plasma levels of VEGFXXX/NFand VEGF are increased in the VEGF bevacizumab-treated group. […] FIG. 13. A-D) The levels of VEGF and VEGF222/NF were evaluated in the plasma (just before sunitinib treatment) of 47 metastatic ccRCC patients. The third quartile was used as the cut-off to determine patients' groups, respectively 4500 […] for VEGF and VEGF222/NF. The plasma levels of VEGF (A and C) or VEGF222/NF (B and D) were correlated to PFS under first-line sunitinib treatment (A and B) or with OS (C and D). Kaplan-Meier method was used to produce survival curves and analyzes of censored data were performed using Cox models. Statistical significance (p values) is indicated.
Tumor sections (5-μm cryostat sections) were fixed in 4% paraformaldehyde for twenty minutes at room temperature and blocked in 1% donkey serum in Tris-buffered saline (TBS) for two hours. […] Preparations were mounted and analyzed with a Leica microscope (Leica DMI4000B) and counted at a 10× magnification. Results are expressed as the number of vessels per mm^2 of sections.

786-O cells [2] = assay: 786-O experimental RCC tumors in NMRI mice, antibody treatment (FIG. 10); format: in vivo; conditions: intraperitoneal once a week for 6 weeks, 5 mg/kg
Description: FIG. 10. VEGF222/NF inhibition delays tumor growth of experimental RCC. 3M of 786-O cells were subcutaneously grafted in the left flank of NMRI mice. […] Tumor volumes were monitored with a caliper for 50 days. ***P<0.001, ****P<0.0001 (Anova Test).
For generating control or polyclonal anti-VEGF222/NF antibodies, 6 weeks BALB/cJRj mice (n=10) were immunized either with KLH carrier protein or with specific peptides SEQ 1 and SEQ2 coupled to KLH as previously described (Guyot et al., 2017, Targeting the pro-angiogenic forms of VEGF or inhibiting their expression as anti-cancer strategies. Oncotarget 8, 9174-9188) IgG were purified of Protein G Sepharose column. All animal studies were approved in advance by the local animal care committee (Veterinary service and direction of sanitary and social action of Monaco, Dr H. Raps.)

## bevacizumab
786-O cells [1]
  number of lymphatic vessels (LYVE1+) in tumors: stimulated their development
  size of tumors versus control group: equivalent to those of the control group
786-O cells [2]
  tumor growth of 786-O experimental tumors: did not
